Structures can show the parent of a compound that is named as a salt.

Assay [1] concerns the target T1, TNKS2 (Homo sapiens, UniProt Q9H2K2).
T1 sequence (Q9H2K2 1-1166): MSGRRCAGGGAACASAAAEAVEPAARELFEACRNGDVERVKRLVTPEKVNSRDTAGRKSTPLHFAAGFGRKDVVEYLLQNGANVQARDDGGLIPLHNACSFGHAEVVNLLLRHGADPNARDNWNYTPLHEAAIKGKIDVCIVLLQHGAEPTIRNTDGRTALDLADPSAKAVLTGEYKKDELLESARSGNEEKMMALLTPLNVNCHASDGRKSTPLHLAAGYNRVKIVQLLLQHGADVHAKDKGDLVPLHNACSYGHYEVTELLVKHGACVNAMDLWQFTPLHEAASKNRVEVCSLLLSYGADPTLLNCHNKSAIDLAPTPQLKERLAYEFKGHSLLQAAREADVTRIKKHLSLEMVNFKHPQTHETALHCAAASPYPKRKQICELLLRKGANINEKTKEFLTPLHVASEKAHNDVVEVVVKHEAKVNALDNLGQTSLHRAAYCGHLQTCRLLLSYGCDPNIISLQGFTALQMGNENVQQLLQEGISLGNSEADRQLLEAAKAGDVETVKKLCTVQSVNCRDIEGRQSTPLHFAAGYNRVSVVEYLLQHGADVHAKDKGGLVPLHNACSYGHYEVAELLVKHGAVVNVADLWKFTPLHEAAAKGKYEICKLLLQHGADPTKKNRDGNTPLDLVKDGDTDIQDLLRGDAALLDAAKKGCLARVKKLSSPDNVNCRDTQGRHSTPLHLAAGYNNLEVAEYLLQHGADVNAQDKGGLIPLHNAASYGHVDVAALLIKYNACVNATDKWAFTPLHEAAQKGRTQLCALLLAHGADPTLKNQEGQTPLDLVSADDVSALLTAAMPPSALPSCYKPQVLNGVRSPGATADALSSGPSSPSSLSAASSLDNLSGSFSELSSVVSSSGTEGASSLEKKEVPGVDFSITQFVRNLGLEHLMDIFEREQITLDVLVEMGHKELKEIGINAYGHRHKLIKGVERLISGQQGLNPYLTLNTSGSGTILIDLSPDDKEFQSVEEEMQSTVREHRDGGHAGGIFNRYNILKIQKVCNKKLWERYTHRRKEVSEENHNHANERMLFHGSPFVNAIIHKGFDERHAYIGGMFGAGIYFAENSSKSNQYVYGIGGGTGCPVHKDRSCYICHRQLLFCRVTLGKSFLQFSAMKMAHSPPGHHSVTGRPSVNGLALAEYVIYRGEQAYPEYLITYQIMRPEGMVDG
As to the kind of experiment: Modified TNKS2 Assay 3 (BPS kit #80578, biotin-NAD+, 96 well). The format is biochemical. The following applies: human TNKS2, BPS kit #80578, 96 well. The gist of the method:
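Commercial kit assay measuring TNKS2-catalysed incorporation of biotin-labelled NAD+ into a protein substrate, detected by streptavidin-HRP chemiluminescence. Run per manufacturer's protocol; IC50 is the concentration halving the normalised signal.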

Assay [2] concerns HEK293 FOP control reporter cell line. As to the kind of experiment: HEK293 FOP Assay (FOP control vector luciferase reporter). The format is cell-based. The following applies: Homo sapiens. The gist of the method: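 Compound series 50 μM to 15 nM, 3.16-fold steps, were diluted in CAFTY buffer (pH 7.4, 2 mM Ca2+, 0.01% BSA) and tested alongside the TOP reporter line. Human Wnt-3a was added at 2500–5 ng/ml in two-fold steps. The control HEK293 line stably holds an FOP vector whose TCF elements are randomized and non-functional.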
A general note: In a reporter assay the amount or activity of a reporter protein is the signal.

In assay [3] the test system is wildtype Wnt signaling cascade. As to the kind of experiment: HEK293 TOP Assay (Super TopFlash luciferase reporter, Wnt-3a stimulated). The format is cell-based. Conditions: Homo sapiens. A digest of the protocol: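 Compounds (50 μM down to 15 nM, 3.16-fold steps, in CAFTY buffer pH 7.4, 2 mM Ca2+, 0.01% BSA) tested in parallel on TOP and FOP HEK293 reporter lines to define selective wildtype Wnt inhibition. Pathway driven by recombinant human Wnt-3a applied at 2500–5 ng/ml in two-fold dilutions.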

Where [4] appears, read: HEK293 FOP control reporter cells, 16 hours, luciferase, dilution series from 50 μM.
Where [5] appears, read: HEK293, 16 h, HEK293 TOP reporter cell line, Wnt-3a at EC50, 16 hours incubation, compound dilution series 50 μM to 15 nM.
[6] abbreviates: HEK293, 16 h, HEK293 TOP reporter cells, Wnt3a at EC50, 16 hours, luciferase.
[7] abbreviates: HEK293 FOP control reporter cell line, 16 hours incubation, compound dilution series 50 μM to 15 nM.

For `CN(C)CCNC(=O)c1ncoc1C(=O)Nc1ccc(NC(=O)c2ccc(F)cc2Cl)cc1` [Example 31, N^5-{4-[(2-chloro-4-fluorobenzoyl)amino]phenyl}-N^4-[2-(dimethylamino)ethyl]-1,3-oxazole-4,5-dicarboxamide], the IC50 was 0.13 µM in assay [1], ≥ 50 µM in assay [2] (setting [4]), 1.6 µM in assay [3] (setting [5]) and 1.6 µM in assay [3] (setting [6]).

In the case of `CNC(=O)c1[nH]c(C)nc1C(=O)Nc1ccc(NC(=O)c2ccc(F)cc2Cl)cc1` [Example 65, N^4-{4-[(2-chloro-4-fluorobenzoyl)amino]phenyl}-N^5,2-dimethyl-1H-imidazole-4,5-dicarboxamide], the values for the IC50 in assay [1], in assay [2] (setting [7]) and in assay [3] (setting [5]) were 0.36 µM, 9.5 µM and 0.8 µM, respectively.

For the compound `CNC(=O)c1nc[nH]c1C(=O)Nc1ccc(NC(=O)c2ccccc2Br)cc1` [Example 37, N^5-{4-[(2-bromobenzoyl)amino]phenyl}-N^4-methyl-1H-imidazole-4,5-dicarboxamide], the IC50 in assay [1] was determined as 0.26 µM; in assay [2] (setting [7]) it was 20 µM; in assay [2] (setting [4]), 20 µM; in assay [3] (setting [5]), 0.33 µM; in assay [3] (setting [6]), 0.33 µM.

With `O=C(Nc1ccc(NC(=O)c2nc[nH]c2C(=O)N[C@@H]2CCNC2)cc1)c1ccc(F)cc1Cl` [Example 282, N^4-{4-[(2-chloro-4-fluorobenzoyl)amino]phenyl}-N^5-[(3R)-pyrrolidin-3-yl]-1H-imidazole-4,5-dicarboxamide hydrochloride salt], the IC50 is 0.01 µM in assay [1]; 50 µM in assay [2] (HEK293, 16 h, HEK293 FOP control reporter cell line, 16 hours incubation, compound dilution series 50 μM to 15 nM); 0.97 µM in assay [3] (HEK293 TOP reporter cell line, Wnt-3a at EC50, 16 hours incubation, compound dilution series 50 μM to 15 nM).

For the compound `O=C(Nc1ccc(NC(=O)c2nc[nH]c2C(=O)NCCN2CC[C@H](F)C2)cc1)c1ccc(F)cc1Cl` [Example 232, N^4-{4-[(2-chloro-4-fluorobenzoyl)amino]phenyl}-N^5-{2-[(3S)-3-fluoropyrrolidin-1-yl]ethyl}-1H-imidazole-4,5-dicarboxamide], the IC50 in assay [1] came to 0.04 µM; in assay [2] (setting [7]), 35 µM; in assay [3] (setting [5]), 0.22 µM.

With `O=C(Nc1ccc(NC(=O)c2nc[nH]c2C(=O)NCCCN2CCCC2)cc1)c1ccc(F)cc1Cl` [Example 274, N^4-{4-[(2-chloro-4-fluorobenzoyl)amino]phenyl}-N^5-[3-(pyrrolidin-1-yl)propyl]-1H-imidazole-4,5-dicarboxamide], the IC50 amounted to 0.009 µM in assay [1], 45 µM in assay [2] (setting [7]) and 0.29 µM in assay [3] (setting [5]).

`O=C(Nc1ccc(NC(=O)c2[nH]cnc2C(=O)NCCN2CCCCC2)cc1)c1ccc(F)cc1` [Example 33, N^4-{4-[(4-fluorobenzoyl)amino]phenyl}-N^5-[2-(piperidin-1-yl)ethyl]-1H-imidazole-4,5-dicarboxamide]: the IC50 in assay [1] is > 0.5 µM; in assay [2] (setting [4]) it was ≥ 50 µM; in assay [3] (setting [5]) it was 0.45 µM; in assay [3] (setting [6]), 0.63 µM.

For the compound `CCN1CCCC1CNC(=O)c1nc[nH]c1C(=O)Nc1ccc(NC(=O)c2ccc(F)cc2Cl)cc1` (stereo not shown) [Example 390, N^5-{4-[(2-chloro-4-fluorobenzoyl)amino]phenyl}-N^4-[(1-ethylpyrrolidin-2-yl)methyl]-1H-imidazole-4,5-dicarboxamide], the values for the IC50 in assay [1], in assay [2] (setting [7]) and in assay [3] (setting [5]) were 0.003 µM, 18 µM and 0.25 µM, respectively.

Take `CCN1CCC[C@H]1CNC(=O)c1nc[nH]c1C(=O)Nc1ccc(NC(=O)c2ccc(F)cc2Cl)cc1` [Example 404, N^5-{4-[(2-chloro-4-fluorobenzoyl)amino]phenyl}-N^4-{[(2S)-1-ethylpyrrolidin-2-yl]methyl}-1H-imidazole-4,5-dicarboxamide]: the figures for the IC50 in assay [1], in assay [2] (setting [7]) and in assay [3] (setting [5]) were 0.0007 µM, 29 µM and 0.09 µM, respectively.

As to `O=C(Nc1ccc(NC(=O)c2nc[nH]c2C(=O)NCCN2CCC[C@@H](F)C2)cc1)c1ccc(F)cc1Cl` [Example 277, N^4-{4-[(2-chloro-4-fluorobenzoyl)amino]phenyl}-N^5-{2-[(3R)-3-fluoropiperidin-1-yl]ethyl}-1H-imidazole-4,5-dicarboxamide], the figures for the IC50 in assay [1], in assay [2] (setting [7]) and in assay [3] (setting [5]) were 0.03 µM, 36 µM and 0.12 µM, respectively.

Take `CC(C)[C@@H](C)NC(=O)c1[nH]cnc1C(=O)Nc1ccc(NC(=O)c2ccc(F)cc2Cl)cc1` [Example 134, N^4-{4-[(2-chloro-4-fluorobenzoyl)amino]phenyl}-N^5-[(2R)-3-methylbutan-2-yl]-1H-imidazole-4,5-dicarboxamide]: the IC50 in assay [1] came to 0.51 µM; in assay [2] (setting [7]), 6.3 µM; in assay [3] (setting [5]), 0.64 µM.

In the case of `O=C(Nc1ccc(NC(=O)c2nc[nH]c2C(=O)NCCN2CCC(F)(F)CC2)cc1)c1ccc(F)cc1Cl` [Example 224, N^4-{4-[(2-chloro-4-fluorobenzoyl)amino]phenyl}-N^5-[2-(4,4-difluoropiperidin-1-yl)ethyl]-1H-imidazole-4,5-dicarboxamide], the results for the half-inhibitory concentration (IC50) in assay [1], in assay [2] (setting [7]) and in assay [3] (setting [5]) were 0.14 µM, 27 µM and 1.25 µM, respectively.

With `O=C(Nc1ccc(NC(=O)c2[nH]cnc2C(=O)NCCN2CCCCC2)cc1)c1cc(OC(F)(F)F)ccc1Br` [Example 63, N^5-(4-{[2-bromo-5-(trifluoromethoxy)benzoyl]amino}phenyl)-N^4-[2-(piperidin-1-yl)ethyl]-1H-imidazole-4,5-dicarboxamide], the IC50 in assay [1] was 0.004 µM; in assay [2] (setting [7]), 11 µM; in assay [3] (setting [5]), 0.11 µM.

On to `CNC(=O)c1nc[nH]c1C(=O)Nc1ccc(NC(=O)c2cccc(C)c2Cl)cc1` [Example 346, N^5-{4-[(2-chloro-3-methylbenzoyl)amino]phenyl}-N^4-methyl-1H-imidazole-4,5-dicarboxamide], for which the figures for the IC50 in assay [1], in assay [2] (setting [7]) and in assay [3] (setting [5]) were > 0.5 µM, 26 µM and 0.9 µM, respectively.

On to `O=C(Nc1ccc(NC(=O)c2nc[nH]c2C(=O)NC2CCOCC2)cc1)c1ccc(F)cc1Cl` [Example 234, N^4-{4-[(2-chloro-4-fluorobenzoyl)amino]phenyl}-N^5-(tetrahydro-2H-pyran-4-yl)-1H-imidazole-4,5-dicarboxamide], for which the IC50 is 0.02 µM in assay [1], 16 µM in assay [2] (setting [7]) and 0.46 µM in assay [3] (setting [5]).

`CC1CCCN(CCNC(=O)c2[nH]cnc2C(=O)Nc2ccc(NC(=O)c3ccccc3Cl)cc2)C1` (stereo not shown) [Example 210, N^4-{4-[(2-chlorobenzoyl)amino]phenyl}-N^5-[2-(3-methylpiperidin-1-yl)ethyl]-1H-imidazole-4,5-dicarboxamide]: the 50% inhibitory concentration (IC50) amounted to 0.003 µM in assay [1], 24 µM in assay [2] (setting [7]) and 0.13 µM in assay [3] (setting [5]).

For `O=C(Nc1ccc(NC(=O)c2nc[nH]c2C(=O)NCCN2CCC(F)(F)CC2)cc1)c1ccccc1Cl` [Example 214, N^4-{4-[(2-chlorobenzoyl)amino]phenyl}-N^5-[2-(4,4-difluoropiperidin-1-yl)ethyl]-1H-imidazole-4,5-dicarboxamide], the IC50 was 0.07 µM in assay [1], 22 µM in assay [2] (setting [7]) and 1.25 µM in assay [3] (setting [5]).

What is called IC50 is the concentration that inhibits the measured activity by half. Higher therefore signals weaker potency.

The values above are taken from patent US9884063B2, “Amido-substituted azole compounds” (Bayer Pharma Aktiengesellschaft, priority 2014, dated 2018).
